These results are taken from patent US10294212B2 (CURADEV PHARMA PRIVATE LTD., priority 2013, dated 2019).

Each structure is given as a SMILES string.

Data set [1] in a line: Brain penetration in rats. It counts as in vivo, Sprague-Dawley rats. Particulars: rat, single i.v. 10 mg/kg. As for the experimental part: ii. Brain penetration in rats: Early and accurate prediction of drug penetration of the blood brain barrier is vital for the development of drugs targeting the central nervous system. Accordingly, ability of the compounds of the invention to penetrate the blood brain barrier was tested according to the methods well established in the art (Giorgetti et al., (2010) JPET 333:748-757, 2010). Briefly, Sprague-Dawley rats (n=3 per time point studied) were administered a single intravenous dose of the test compounds 2 or 97 formulated in 40% PEG and 20% PG at 10 mg/kg. Three rats were used for each of the following time points post-dosing: 0.5 hr, 1.5 hr and 3.0 hrs. First, blood was collected during deep anesthesia in heparinized tubes, and then animals were sacrificed and their brains were harvested. The brains were then pulverized in liquid nitrogen and homogenized in fixed volumes of ice cold homogenization buffer (10% Acetonitrile, 0.1% formic acid in water). Plasma was separated from blood using standard procedures. Plasma and brain concentrations of test compounds 2 and 97 were determined by LC/MS/MS using an API 4000 or AP15500 Qtrap mass spectrometer. Brain/Plasma ratio of test compounds 2 and 97 were determined after normalizing brain weight and buffer volume.

A further data set relates to CT-26 tumor cells. The data set can be described thus: Combination therapy with Doxorubicin in CT-26 syngeneic tumor model. It counts as in vivo, Balb/c mice. Particulars: vs DOXO or compound alone. As to the method: Test compounds were evaluated in mice syngeneic tumor models described above for usefulness in combination therapy with a chemotheraputic agent, Doxorubicin (DOXO, Sterling Biotech, India).
Tumor bearing Balb/c mice as described earlier were randomized to receive vehicle alone, test compound alone, DOXO alone, or test compound in combination with DOXO. Animals in DOXO treated arm were injected intraperitoneally on day 1 with DOXO formulated in normal saline (7.5 mg/kg). Five days later, the animals were dosed twice a day orally with either a test compound or vehicle alone during the test period till the end of the experiment. A second smaller dose of DOXO at 3 or 4 mg/Kg was administered to the DOXO-treated animals about 3 weeks after the first DOXO dose. Tumor volume was measured in animals as described above.
Non-limiting examples follow. Test compound 97 was formulated in 40% PEG, 20% PG, 10% DACM in normal saline. From day 5 after the first DOXO dose was administered till the end of the study period on day 35, the animals were dosed twice a day orally with compound 97 (75 mg/kg). Three weeks later, the DOXO-treated animals were injected i.p. with a second dose of DOXO (3 mg/kg). Tumor volume was monitored as described above. Tumor tissues and final blood samples were harvested from the mice 4 hours after the final test compound dose. […]

`Nc1oc2cnccc2c1Nc1ccc(F)c(Cl)c1` [Compound 2, N^3-(3-Chloro-4-fluoro-phenyl)-furo[2,3-c]pyridine-2,3-diamine]: in data set [1], the “blood brain barrier penetration” value is “capable of penetrating blood brain barrier”.

In the case of `Nc1oc2c(-c3ccncc3)nccc2c1Nc1ccc(F)c(Cl)c1` [Compound 97, N^3-(3-Chloro-4-fluorophenyl)-7-(pyridin-4-yl)furo[2,3-c]pyridine-2,3-diamine], in the data set with CT-26 tumor cells (75 mg/kg oral BID + DOXO 7.5 then 3 mg/kg i.p.), the “tumor volume, combination with DOXO” value is recorded as “greater reduction in tumor volume”. For the same compound, the “blood brain barrier penetration” value in data set [1] was “capable of penetrating blood brain barrier”.

For `Nc1oc2c(-c3ccncc3)nccc2c1Nc1ccc(F)c(F)c1` [Compound 184, N^3-(3,4-difluorophenyl)-7-(pyridin-4-yl)furo[2,3-c]pyridine-2,3-diamine], the “tumor volume, combination with DOXO” value in the data set with CT-26 tumor cells (50 mg/kg oral BID + DOXO) is “greater reduction in tumor volume”.
